Molecular target: 3',5'-cyclic-AMP phosphodiesterase 4B (Homo sapiens, UniProt Q07343)
Experiment: Inhibition In Vitro Assay: PDE4A, PDE4B, PDE4C, PDE4D, and PDE5 human recombinant proteins are expressed and purified from Saccharomyes cerevisiae that lack endogenous PDEs. The phosphodiesterase enzymes are diluted on ice with enzyme dilution buffer (25 mM Tris, pH 7.5, 0.1 mM DTT, 5.0 mM MgCl2, 100 mM NaCl, 5 μM ZnSO4, 100 μg/mL BSA) to give approximately 20%-40% hydrolysis of cyclic nucleotide monophosphate (cNMP) in the absence of inhibitor. The stock solution of test compounds are diluted on the Beckman BioMek™ 1000 workstation to span a concentration range of 4.5 log units in 0.5 log increments. The DMSO concentration in the final test system is 2.5% for all PDE enzymes. The final test compound concentration tested ranged from 0.03 nM to 1 μM. The assay is performed in a 96-well microtiter plate format on a Beckman BioMek™ 1000 robotic station. Each row of the plate represents a 10-point dose response curve containing blank (no enzyme), non-inhibited control, and inhibitor dilutions spanning 4.5 log units in concentration in 0.5 log increments. Assay stock solutions are loaded into the Biomek™ reservoirs (water, inhibitor diluent [2.5% or 10% DMSO], 5× PDE assay buffer, substrate, inhibitor solutions, enzyme solutions, snake venom nucleotidase, and charcoal suspension). The reaction is initiated with enzyme, and incubated for 15 minutes at 30° C. […]

3',5'-cyclic-AMP phosphodiesterase 4B, sequence (Q07343 whole entry): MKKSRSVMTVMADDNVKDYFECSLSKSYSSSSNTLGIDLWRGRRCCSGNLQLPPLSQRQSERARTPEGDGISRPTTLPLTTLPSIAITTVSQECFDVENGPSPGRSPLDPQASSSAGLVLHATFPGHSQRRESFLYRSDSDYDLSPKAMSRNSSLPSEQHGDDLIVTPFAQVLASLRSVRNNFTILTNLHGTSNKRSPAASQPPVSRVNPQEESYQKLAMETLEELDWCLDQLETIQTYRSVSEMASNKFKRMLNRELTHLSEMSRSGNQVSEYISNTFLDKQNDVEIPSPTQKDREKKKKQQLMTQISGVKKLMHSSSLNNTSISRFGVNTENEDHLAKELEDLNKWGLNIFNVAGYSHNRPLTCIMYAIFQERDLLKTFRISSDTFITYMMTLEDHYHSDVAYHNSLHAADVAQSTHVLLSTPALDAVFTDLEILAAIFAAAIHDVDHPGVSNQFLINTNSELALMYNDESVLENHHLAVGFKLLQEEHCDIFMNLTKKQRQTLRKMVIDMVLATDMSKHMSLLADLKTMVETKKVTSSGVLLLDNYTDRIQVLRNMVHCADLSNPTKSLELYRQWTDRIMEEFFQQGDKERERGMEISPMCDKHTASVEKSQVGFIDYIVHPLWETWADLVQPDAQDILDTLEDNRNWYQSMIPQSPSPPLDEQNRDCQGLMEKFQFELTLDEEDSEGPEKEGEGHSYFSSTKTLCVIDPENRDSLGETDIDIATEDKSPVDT

How did the IC50 turn out when `COc1ccc([C@@H]2CN(C(=O)[C@@H](O)CO)C[C@@]2(C)[C@@H](C)O)cc1OC1CN(c2cnccn2)C1` was run?
Its IC50 is 0.014 µM.

— ChEMBL document CHEMBL5727973, “Azetidinyloxyphenylpyrrolidine compounds” (2020)
